Measured values from patent US5635495A, “Pyrimidine bisphosphonate esters and (alkoxymethylphosphinyl)alkyl phosphonic acids as anti-inflammatories” (The Upjohn Company, priority 1995, dated 1997).

Columns and labels:
[1] = tested on: mBSA-induced DTH granuloma (DTH GRA) lesion; experiment: Delayed Type Hypersensitivity Granuloma Assay (DTH GRA) model for inflammation; format: in vivo, mouse; conditions: for % Inhibition Dry Weight: granuloma dry weight; for % Inhibition Dry Weight / % Inhibition Wet Weight: excised after nine days; for % Inhibition Wet Weight: granuloma wet weight
Description: Compounds of Formula 3 and a compound of Formula 2 have been tested in a Delayed Type Hypersensitivity Granuloma Assay (DTH GRA) model for inflammation. This assay is described by Dunn, C. J. et al., "Development of a delayed-type hypersensitivity granuloma model in the mouse for the study of chronic immune-mediated inflammatory disease," Agents and Actions, 27, 3/4 (1989) and "Murine Delayed-Type Hypersensitivity Granuloma," Int. J. Immunopharmc., 12, 8, 899-904 (1990).
Briefly, mBSA-sensitized mice have a DTH granuloma (DTH GRA) lesion induced by subcutaneously implanting a mBSA-soaked filter which is excised after nine days. Compounds are administered to the mice to determine their effect on the lesions. The results are recorded as percent inhibition. […] Inhibition of 10 to 20% is considered to indicate anti-granuloma activity. Greater than 30% inhibition is good activity.
The compound of Formula 2 tested was 1-((ethoxy-methylphosphinyl))-4-(3-methyl-6-phenyl-4(3H)-pyrimidinone-2-yl)-butane phosphonic acid diethyl ester, Example 16 and the DTH GRA data obtained for this compound was 44.4%.

[2] = tested on: calcium channel; experiment: in vitro model which identifies calcium channel blocking activity (KCl-induced calcium influx, INDO-1, human dermal fibroblasts); format: cell-based; conditions: 40 mM KCl, human dermal fibroblasts CRL 1445
Protocol: These compounds were also tested in an in vitro model which identifies calcium channel blocking activity. In this test, adherent human dermal fibroblasts (CRL 1445, ATCC, Bethesda, Md.) were allowed to attach to glass cover slips placed in 6 well culture plates. Cultures were maintained in DMEM supplemented with antibiotics and 10% fetal bovine serum (FBS) until confluent.
The fibroblasts were washed once with Dulbecco's phosphate buffered saline to remove the culture medium and FBS. The calcium probe, INDO-1 AM ([…]) in RPMI 1640 without phenol red and supplemented with 10 mM hepes and 2 mM glutamine was added to the cells for 1 hour at 37° C. The cells were washed twice with RPMI1640 and remained in this medium until calcium measurements were obtained with the Meridian ACAS digital image microscope.
The cover slip with the attached fibroblasts was placed in a chamber with 1 ml of RPMI on the microscope stage, and maintained at 37° C. The cells were exposed to a laser beam set at 310 nm and fluorescent emission was measured at 485 nm and 405 nm. Baseline resting calcium levels of the fibroblasts were measured for 30 seconds after which 40 mM KCl was added to the medium in the holder. Data was collected at 40 second intervals for a total of 300 to 400 seconds. Maximal calcium influx is usually reached within 40 seconds after the addition of KCl, and begins to slowly decrease to ~50% of the maximal level. The intracellular calcium concentrations remain elevated for at least 400 seconds.
In order to measure the inhibitory effect of the test compounds on changes in intracellular calcium, the compound was added to the cells maintained in RPMI medium for a minimum of 20 minutes before the fibroblast membranes were depolarized with KCl as outlined above. The mean increase in intracellular calcium was then compared to control fibroblasts which had been pretreated for similar lengths of time with DMSO and exposed to KCl. A calcium standard curve was obtained on the day of the experiments in order to generate absolute intracellular calcium concentrations if needed.
Two known calcium channel blockers, D600 and nifedipine were also tested to compare the relative efficacies of the "standard" compounds with the novel diphosphonates. For instance, D600 (available from the Sigma Co., St. Louis, Mo.) inhibited calcium influx into a cell by 83 to 100% at 10^-5 molar concentration. The Control is a sub-structure of Example 9 (k) not having the bisphosphonate teralkyl ester portion.

Row | Structure (SMILES) | % Inhibition Dry Weight ([1]; 10 mg/kg PO) | % Inhibition Wet Weight ([1]; 10 mg/kg PO) | further results
1 | CCOP(C)(=O)C(CCc1nc(-c2ccccc2)cc(=O)n1C)P(=O)(OCC)OCC (stereo not drawn) [Example 16, 1-(Ethoxymethylphosphinyl)-3-(3-methyl-6-phenyl14(3H)-pyrimidinone-2-yl)-propane phosphonic acid diethyl ester] | – | – | DTH GRA percent inhibition ([1]; dose, route and wet/dry weight not given): 44.4%
2 | Cc1cc(Oc2ccc(F)cc2F)nc(NCC(P2(=O)OCC(C)(C)CO2)P2(=O)OCC(C)(C)CO2)n1 [Ex. 18 (b), (2-((4-(2,4-difluorophenoxy)-6-methyl-2-pyrimidinyl)amino)ethylidene)bis(2,2'-(5,5-dimethyl-2,2'-dioxide-1,3,2-dioxaphosphorphinane))] | 58.3% | 70.6% | –
3 | Cc1cc(Oc2ccc(C#N)cc2)nc(NCC(P2(=O)OCC(C)(C)CO2)P2(=O)OCC(C)(C)CO2)n1 [Ex. 20 (e), (2-((4-(4-cyanophenoxy)-6-methyl-2-pyrimidinyl)amino)ethylidene)bis(2,2'-(5,5-dimethyl-2,2'-dioxide-1,3,2-dioxaphosphorphinane))] | 41.8% | 27.4% | –
4 | Cc1cc(Oc2ccc(Cl)cc2Cl)nc(N)n1 [Control, reference compound] | – | – | % Inhibition Mean SD (calcium channel activity) ([2]; 10^-5 M): 12%
5 | Cc1cc(Oc2ccc(Br)cc2Br)nc(NCC(P2(=O)OCC(C)(C)CO2)P2(=O)OCC(C)(C)CO2)n1 [Ex. 19 (d), (2-((4-(2-,4-dibromophenoxy)-6-methyl-2-pyrimidinyl)amino)ethylidene)bis(2,2'(5,5-dimethyl-2,2'-dioxide-1,3,2-dioxaphosphorphinane))] | 25.0% | 12.1% | –
6 | Cc1cc(Oc2c(F)cccc2[N+](=O)[O-])nc(NCC(P2(=O)OCC(C)(C)CO2)P2(=O)OCC(C)(C)CO2)n1 [Ex. 17 (a), (2-((4-(2-fluoro-6-nitrophenoxy)-6-methyl-2-pyrimidinyl)amino)ethylidene)bis(2,2'-(5,5-dimethyl-2,2'-dioxide-1,3,2-dioxaphosphorphinane))] | 39.0% | 47.9% | –
7 | COc1cc(C)nc(NCC(P2(=O)OCC(C)(C)CO2)P2(=O)OCC(C)(C)CO2)n1 [Ex. 26 (l), (2((4-(methyl)-6-methoxy-2-pyrimidinyl)amino)ethylidene)bis(2,2'-(5,5-dimethyl-2,2'-dioxide-1,3,2-dioxaphosphorphine))] | 44.8% | 41.9% | –
8 | CCOP(=O)(OCC)C(CNc1nc(C)cc(Oc2ccc(Cl)cc2Cl)n1)P(=O)(OCC)OCC [(f), (2-((4-2,4-dichlorophenoxy-6-methyl-2-pyrimidinyl)amino)ethylidene)bisphosphonic acid tetraethyl ester] | 39.7% | 45.9% | –
9 | CCOP(=O)(OCC)C(CNc1nc(C)cc(Oc2ccc(Cl)cc2Cl)n1)P(=O)(OCC)OCC [Ex. 25 (k), (2-((4-(2,4-dichlorophenoxy)-6-methyl-2-pyrimidinyl)amino)ethylidene)bisphosphonic acid, tetraethyl ester] | – | – | % Inhibition Dry Weight ([1]; 100 mg/kg, administered sc): 39.6%; % Inhibition Wet Weight ([1]; 100 mg/kg, administered sc): 40.5%; % Inhibition Mean SD (calcium channel activity) ([2]; 10^-5 M): 92 ± 5%; % Inhibition Mean SD (calcium channel activity) ([2]; 10^-6 M): 75 ± 9%; % Inhibition Mean SD (calcium channel activity) ([2]; 10^-7 M): 35 ± 19%
10 | Cc1cc(N2CCOCC2)nc(NCC(P2(=O)OCC(C)(C)CO2)P2(=O)OCC(C)(C)CO2)n1 [Ex. 21 (c), (2-((4-(4-morpholinyl)-6-methyl-2-pyrimidinyl)amino)ethylidene)bis(2,2'-(5,5-dimethyl-2,2'-dioxide-1,3,2-dioxaphosphorphinane))] | 62.5% | 68.6% | –
